The text below walks through data of paper PMC10082216 (Nature Communications, 2023).

Where two headings read alike, the source gives them in different places.

The conditions of data set [1]: cited from earlier work; for Cmax / t1/2: healthy volunteers.
Data set [2] deals with human subjects. As to conditions: cited from earlier work; for AE (%) / SAE (%): healthy volunteers.
Data set [3] in a line: Hit scoring on safety in human subjects and pharmacokinetics. The text has this: Hits from the ReFrame library were further selected based on safety, preferably oral administration (high score if oral), and potential availability for widespread use.
Data set [4] concerns P.falciparum Dd2. Further details: method as in previously published reports (Table S1 legend). Particulars: 72 h; results in previous assays; ref previously published reports (Table S1 legend); read-out: 72-h Dd2-SybrGreen PBFS assay IC50; cited from earlier work.
The test system of data set [5] is mature stage V gametocytes (NF54 strain). In words: microbe, parasite or virus in culture. In kind it is cell-based, Plasmodium falciparum. As to conditions: Plasmodium falciparum. An outline of the steps: (§1)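 NF54 stage V gametocytes (day 17, density-purified, 0.5% hematocrit) exposed 24 h to compounds at 1.11 µM (primary) or in dose-response. Killing scored by MitoTracker staining; gametocytemia by Sybr Green/CellMask staining, with microsphiltration for stiffening. DMSO 0.05% negative control.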

Data set [6] shares this test system. In words: High-throughput screening: killing effect by MitoTracker staining, primary screening at 1.11 µM and dose-response analysis. As to conditions: stage V gametocytes NF54, 24 h, dose-response analysis, N/A = not active in dose-response analysis, read-out: Killing IC50. It is filed as cell-based, Plasmodium falciparum. An outline of the steps:
as §1

Setting [7] is: 90 mg single dose in combination with sofosbuvir 400 mg, ref CTR20160149.
Setting [8] is: 50 mg single dose, ref NCT01937975.
The mark [9] stands for this setting: 100 mg single dose in combination with sofosbuvir 400 mg, ref CTR20160602.

The term Cmax denotes the highest concentration seen after dosing. For the compound `COC(=O)N[C@H](C(=O)N1CC2(CC2)C[C@H]1c1ncc(-c2ccc3c(c2)C(F)(F)c2cc(-c4ccc5nc([C@@H]6[C@H]7CC[C@H](C7)N6C(=O)[C@@H](NC(=O)OC)C(C)C)[nH]c5c4)ccc2-3)[nH]1)C(C)C` [Ledipasvir], in data set [1] (setting [7]), the Cmax was 362 nM and the t1/2 is 39.9 h. The “safety in pregnant women” value in data set [2] was “can be safely administered to pregnant women”. Further, in data set [2] (setting [7]), the “AE (%)” value was 42.9% and the “SAE (%)” value is 0%.

For the compound `COC(=O)N[C@H](C(=O)N1CCC[C@H]1c1nc(-c2ccc3c(c2)O[C@@H](c2ccccc2)n2c-3cc3cc(-c4c[nH]c([C@@H]5CCCN5C(=O)[C@@H](NC(=O)OC)C(C)C)n4)ccc32)c[nH]1)C(C)C` [Elbasvir], in data set [1] (setting [8]), the Cmax is 163 nM and the t1/2 is 25 h. Also, in data set [2] (setting [8]), the “AE (%)” value is listed as 37.5% and the “SAE (%)” value is reported as 0%.

Broadly, the IC50 is the point on the concentration scale where inhibition reaches its midpoint. For `CS(=O)(=O)c1ccc(-c2cnc(N)c(-c3ccc(C(F)(F)F)nc3)c2)cc1` [MMV-390048], the “Score (safety)” value in data set [3] was 3. In addition, the “Score (PK)” value in data set [3] (peak plasma concentration vs IC50) is 2 (Peak plasma concentration between 1/3 IC50 and IC50 (Score = 2)). Also, the IC50 in data set [4] was 0.229 µM; in data set [5] (NF54, 24 h, read-out: Stiffening IC50 (retention)), 3.5 µM; in data set [5] (NF54, read-out: IC50 (killing and stiffening, given as range)), 3.5 to 3.9 µM; in data set [6] (Plasmodium falciparum, NF54, 24 h) it was 3.86 µM; in data set [6], 3.9 µM. In addition, in data set [1] (humans, highest 120 mg dose, ref 37 (McCarthy et al 2020)), the serum peak concentration is 2.8 µM.

`COC[C@H]1C[C@@H](c2ncc(-c3ccc4c(c3)COc3cc5c(ccc6nc([C@@H]7CC[C@H](C)N7C(=O)[C@@H](NC(=O)OC)C(C)C)[nH]c65)cc3-4)[nH]2)N(C(=O)[C@H](NC(=O)OC)c2ccccc2)C1` [Velpatasvir]: in data set [1] (setting [9]), the Cmax was 584 nM and the t1/2 was 16.8 h. In data set [2] (setting [9]), the “AE (%)” value is 42.9% and the “SAE (%)” value was 0%.
